Data published in patent US10897901B2, “Herbicidal composition” (FMC Corporation, priority 2007, dated 2021).

How the values were obtained:
Type in all cases: in vivo
[1] = system: White Clover (Trifolium repens); assay: Example 1 post-emergent turf plot test, clover; conditions: 0.75 lb ai/acre
Procedure: The experimental design used randomized plots with post-emergent treatment and three replications per test trial. The size of each experimental plot was 4 feet by 6 feet. The application of each test composition was performed with pressurized back-pack sprayers, calibrated to spray 200 gallons per acre. Test compositions containing sulfentrazone (DISMISS™ Turf Herbicide), quniclorac, (FACET® 75 DF herbicide) or a mixture of sulfentrazone and quinclorac in a 1:3 ratio, prepared as described above, were diluted with water to provide the appropriate test rate concentrations.
The control of weeds was evaluated in each experimental plot from 7 to 41 days after treatment (DAT) of each test rate. The results, shown as an average of the replications, were compared with results observed in untreated control plots in the same trials.

[2] = system: yellow nutsedge (Cyperus esculentusi); assay: Example 3 post-emergence greenhouse pot test, nutsedge
Procedure: Test compositions containing sulfentrazone (DISMISS™ Turf Herbicide), quniclorac, (DRIVE® 75 DF Herbicide) or mixture of sulfentrazone and quinclorac in a three to one ratio, prepared as described above, were diluted with water to provide the appropriate test rate concentrations. A nonionic surfactant (0.25%) was added to each test solution.
The test weeds include Red River crabgrass (Digitaria ciliaris) and yellow nutsedge (Cyperus esculentusi).
(§1) For post-emergence testing, three disposable 3 inch square pots for each rate of application of each herbicide were filled with a soil, comprised of peat moss, vermiculite, bark ash, pine bark, limestone and a wetting agent, to which 8 to 10 seeds were planted. The pots were placed in a greenhouse and watered daily, thus allowing the seeds to germinate and the foliage to develop.
(§2) Pots designated for treatment were placed on a conveyor belt and the conveyor belt fed under a spray nozzle mounted about ten inches above the foliage. The spray of herbicidal solution was commenced and once stabilized; the pots were passed under the spray at a speed to receive a coverage equivalent of 30 gallons per acre. The application rates are those shown in Table 3 below for the individual herbicidal solutions and the mixture of sulfentrazone and quinclorac. The post-emergence pots were immediately placed in the green-house and not watered until 24 hours after treatment with the test solution. Thereafter they were regularly watered at ground level. The control of weeds was evaluated in each experimental test from 1 to 22 days after treatment (DAT). The results, shown as an average of the replications, were compared with results observed in untreated control pots in the same tests.
(§3) Percent control was determined by a method similar to the 0 to 100 rating system disclosed in “Research Methods in Weed Science,” 2nd ed., B. Truelove, Ed.; Southern Weed Science Society; Auburn University, Auburn, Ala., 1977.

crabgrass (Digitaria sp) = assay: Example 4 post-emergence greenhouse pot test, crabgrass
Procedure: (§4) Test compositions containing sulfentrazone (75 DF formulation), quniclorac, (DRIVE® 75 DF Herbicide) or mixtures of sulfentrazone and quinclorac at ratios of 1:1 to 1:5, were diluted with water to provide the appropriate test rate concentrations. A nonionic surfactant (0.25%) was added to each test solution. The test weeds include crabgrass (Digitaria sp), Chickweed (Stellaria media), Hemp Sesbania (Sesbania exaltata), Kochia (Kochia scoparia), Ivyleaf Morningglory (Ipomoea hederacea), Redroot Pigweed (Amaranthus retroflexus) and yellow nutsedge (Cyperus esculentusi).
as §1, with “develop for 22 days, 3 months for Kochia.” for “develop.”
as §2, with “Table 4” for “Table 3”, “from 2” for “from 1”, “to 20” for “to 22”
as §3

[3] = system: Chickweed (Stellaria media); assay: Example 4 post-emergence greenhouse pot test, chickweed
Procedure: as §4
as §1, with “develop for 22 days, 3 months for Kochia.” for “develop.”
as §2, with “Table 4” for “Table 3”, “from 2” for “from 1”, “to 20” for “to 22”
as §3

**Q.** For `O=C(O)c1c(Cl)ccc2cc(Cl)cnc12` [B, 3,7-dichloro-8-quinolinecarboxylic acid], which “Percent Control” value ([1]; 7 DAT) is on record?
**A.** 50%

**Q.** And the “Percent Control” value ([1]; 14 DAT)?
**A.** 50%

**Q.** And the “Percent Control” value ([1]; 21 DAT)?
**A.** 50%

**Q.** What about the “Percent Control” value ([1]; 28 DAT) of the same molecule?
**A.** 63%

**Q.** And the “Percent Control” value ([2]; 1-5 leaf stage, 7 days old, 0.375 lb ai/acre, 1 DAT)?
**A.** 0%

**Q.** And the “Percent Control” value ([2]; 1-5 leaf stage, 7 days old, 0.375 lb ai/acre, 3 DAT)?
**A.** 0%

**Q.** And the “Percent Control” value ([2]; 1-5 leaf stage, 7 days old, 0.375 lb ai/acre, 7 DAT)?
**A.** 0%

**Q.** What about the “Percent Control” value ([2]; 1-5 leaf stage, 7 days old, 0.375 lb ai/acre, 14 DAT) of the same molecule?
**A.** 0%

**Q.** What about the “Percent Control” value ([2]; 1-5 leaf stage, 7 days old, 0.375 lb ai/acre, 21 DAT) of the same molecule?
**A.** 0%

**Q.** And the “Percent Control” value ([2]; 1-5 leaf stage, 7 days old, 0.75 lb ai/acre, 1 DAT)?
**A.** 0%

**Q.** And the “Percent Control” value ([2]; 1-5 leaf stage, 7 days old, 0.75 lb ai/acre, 3 DAT)?
**A.** 0%

**Q.** What about the “Percent Control” value ([2]; 1-5 leaf stage, 7 days old, 0.75 lb ai/acre, 7 DAT) of the same molecule?
**A.** 0%

**Q.** What about the “Percent Control” value ([2]; 1-5 leaf stage, 7 days old, 0.75 lb ai/acre, 14 DAT) of the same molecule?
**A.** 0%

**Q.** What about the “Percent Control” value ([2]; 1-5 leaf stage, 7 days old, 0.75 lb ai/acre, 21 DAT) of the same molecule?
**A.** 0%

**Q.** What about the “Percent Control” value ([2]; 1-5 leaf stage, 7 days old, 1.0 lb ai/acre, 1 DAT) of the same molecule?
**A.** 0%

**Q.** And the “Percent Control” value ([2]; 1-5 leaf stage, 7 days old, 1.0 lb ai/acre, 3 DAT)?
**A.** 0%

**Q.** What about the “Percent Control” value ([2]; 1-5 leaf stage, 7 days old, 1.0 lb ai/acre, 7 DAT) of the same molecule?
**A.** 0%

**Q.** What about the “Percent Control” value ([2]; 1-5 leaf stage, 7 days old, 1.0 lb ai/acre, 14 DAT) of the same molecule?
**A.** 0%

**Q.** What about the “Percent Control” value ([2]; 1-5 leaf stage, 7 days old, 1.0 lb ai/acre, 21 DAT) of the same molecule?
**A.** 0%

**Q.** What about the “Percent Control” value ([2]; 5-7 leaves, cut to 6 cm tall, 28 days old, 0.375 lb ai/acre, 1 DAT) of the same molecule?
**A.** 0%

**Q.** And the “Percent Control” value ([2]; 5-7 leaves, cut to 6 cm tall, 28 days old, 0.375 lb ai/acre, 3 DAT)?
**A.** 5%

**Q.** And the “Percent Control” value ([2]; 5-7 leaves, cut to 6 cm tall, 28 days old, 0.375 lb ai/acre, 7 DAT)?
**A.** 5%

**Q.** What about the “Percent Control” value ([2]; 5-7 leaves, cut to 6 cm tall, 28 days old, 0.375 lb ai/acre, 14 DAT) of the same molecule?
**A.** 5%

**Q.** What about the “Percent Control” value ([2]; 5-7 leaves, cut to 6 cm tall, 28 days old, 0.375 lb ai/acre, 21 DAT) of the same molecule?
**A.** 0%

**Q.** What about the “Percent Control” value ([2]; 5-7 leaves, cut to 6 cm tall, 28 days old, 0.75 lb ai/acre, 1 DAT) of the same molecule?
**A.** 0%

**Q.** What about the “Percent Control” value ([2]; 5-7 leaves, cut to 6 cm tall, 28 days old, 0.75 lb ai/acre, 3 DAT) of the same molecule?
**A.** 0%

**Q.** And the “Percent Control” value ([2]; 5-7 leaves, cut to 6 cm tall, 28 days old, 0.75 lb ai/acre, 7 DAT)?
**A.** 2%

**Q.** What about the “Percent Control” value ([2]; 5-7 leaves, cut to 6 cm tall, 28 days old, 0.75 lb ai/acre, 14 DAT) of the same molecule?
**A.** 2%

**Q.** And the “Percent Control” value ([2]; 5-7 leaves, cut to 6 cm tall, 28 days old, 0.75 lb ai/acre, 21 DAT)?
**A.** 0%

**Q.** What about the “Percent Control” value ([2]; 5-7 leaves, cut to 6 cm tall, 28 days old, 1.0 lb ai/acre, 1 DAT) of the same molecule?
**A.** 0%

**Q.** And the “Percent Control” value ([2]; 5-7 leaves, cut to 6 cm tall, 28 days old, 1.0 lb ai/acre, 3 DAT)?
**A.** 5%

**Q.** What about the “Percent Control” value ([2]; 5-7 leaves, cut to 6 cm tall, 28 days old, 1.0 lb ai/acre, 7 DAT) of the same molecule?
**A.** 5%

**Q.** What about the “Percent Control” value ([2]; 5-7 leaves, cut to 6 cm tall, 28 days old, 1.0 lb ai/acre, 14 DAT) of the same molecule?
**A.** 5%

**Q.** What about the “Percent Control” value ([2]; 5-7 leaves, cut to 6 cm tall, 28 days old, 1.0 lb ai/acre, 21 DAT) of the same molecule?
**A.** 0%

**Q.** What about the Percent Control (crabgrass (Digitaria sp); 0.25 lb ai/acre, 2 DAT) of the same molecule?
**A.** 10%

**Q.** What about the Percent Control (crabgrass (Digitaria sp); 0.25 lb ai/acre, 7 DAT) of the same molecule?
**A.** 20%

**Q.** And the Percent Control (crabgrass (Digitaria sp); 0.25 lb ai/acre, 14 DAT)?
**A.** 20%

**Q.** And the Percent Control (crabgrass (Digitaria sp); 0.25 lb ai/acre, 20 DAT)?
**A.** 10%

**Q.** And the Percent Control (crabgrass (Digitaria sp); 0.5 lb ai/acre, 2 DAT)?
**A.** 0%

**Q.** What about the Percent Control (crabgrass (Digitaria sp); 0.5 lb ai/acre, 7 DAT) of the same molecule?
**A.** 10%

**Q.** And the Percent Control (crabgrass (Digitaria sp); 0.5 lb ai/acre, 14 DAT)?
**A.** 60%

**Q.** What about the Percent Control (crabgrass (Digitaria sp); 0.5 lb ai/acre, 20 DAT) of the same molecule?
**A.** 50%

**Q.** And the Percent Control (crabgrass (Digitaria sp); 0.75 lb ai/acre, 2 DAT)?
**A.** 0%

**Q.** And the Percent Control (crabgrass (Digitaria sp); 0.75 lb ai/acre, 7 DAT)?
**A.** 0%

**Q.** What about the Percent Control (crabgrass (Digitaria sp); 0.75 lb ai/acre, 14 DAT) of the same molecule?
**A.** 60%

**Q.** And the Percent Control (crabgrass (Digitaria sp); 0.75 lb ai/acre, 20 DAT)?
**A.** 50%

**Q.** And the Percent Control (crabgrass (Digitaria sp); 1.0 lb ai/acre, 2 DAT)?
**A.** 0%

**Q.** What about the Percent Control (crabgrass (Digitaria sp); 1.0 lb ai/acre, 7 DAT) of the same molecule?
**A.** 10%

**Q.** What about the Percent Control (crabgrass (Digitaria sp); 1.0 lb ai/acre, 14 DAT) of the same molecule?
**A.** 60%

**Q.** And the Percent Control (crabgrass (Digitaria sp); 1.0 lb ai/acre, 20 DAT)?
**A.** 70%

**Q.** And the Percent Control (crabgrass (Digitaria sp); 1.25 lb ai/acre, 2 DAT)?
**A.** 0%

**Q.** And the Percent Control (crabgrass (Digitaria sp); 1.25 lb ai/acre, 7 DAT)?
**A.** 10%

**Q.** And the Percent Control (crabgrass (Digitaria sp); 1.25 lb ai/acre, 14 DAT)?
**A.** 60%

**Q.** And the Percent Control (crabgrass (Digitaria sp); 1.25 lb ai/acre, 20 DAT)?
**A.** 70%

**Q.** And the Percent Control ([3]; 0.25 lb ai/acre, 2 DAT)?
**A.** 0%

**Q.** What about the Percent Control ([3]; 0.25 lb ai/acre, 7 DAT) of the same molecule?
**A.** 0%

**Q.** And the Percent Control ([3]; 0.25 lb ai/acre, 14 DAT)?
**A.** 0%

**Q.** And the Percent Control ([3]; 0.25 lb ai/acre, 20 DAT)?
**A.** 0%

**Q.** What about the Percent Control ([3]; 0.5 lb ai/acre, 2 DAT) of the same molecule?
**A.** 0%

**Q.** What about the Percent Control ([3]; 0.5 lb ai/acre, 7 DAT) of the same molecule?
**A.** 0%

**Q.** And the Percent Control ([3]; 0.5 lb ai/acre, 14 DAT)?
**A.** 0%

**Q.** And the Percent Control ([3]; 0.5 lb ai/acre, 20 DAT)?
**A.** 0%

**Q.** What about the Percent Control ([3]; 0.75 lb ai/acre, 2 DAT) of the same molecule?
**A.** 0%

**Q.** What about the Percent Control ([3]; 0.75 lb ai/acre, 7 DAT) of the same molecule?
**A.** 0%

**Q.** What about the Percent Control ([3]; 0.75 lb ai/acre, 14 DAT) of the same molecule?
**A.** 0%

**Q.** What about the Percent Control ([3]; 0.75 lb ai/acre, 20 DAT) of the same molecule?
**A.** 0%

**Q.** And the Percent Control ([3]; 1.0 lb ai/acre, 2 DAT)?
**A.** 0%

**Q.** What about the Percent Control ([3]; 1.0 lb ai/acre, 7 DAT) of the same molecule?
**A.** 5%

**Q.** And the Percent Control ([3]; 1.0 lb ai/acre, 14 DAT)?
**A.** 5%

**Q.** What about the Percent Control ([3]; 1.0 lb ai/acre, 20 DAT) of the same molecule?
**A.** 5%

**Q.** What about the Percent Control ([3]; 1.25 lb ai/acre, 2 DAT) of the same molecule?
**A.** 5%

**Q.** What about the Percent Control ([3]; 1.25 lb ai/acre, 7 DAT) of the same molecule?
**A.** 5%

**Q.** What about the Percent Control ([3]; 1.25 lb ai/acre, 14 DAT) of the same molecule?
**A.** 2%

**Q.** And the Percent Control ([3]; 1.25 lb ai/acre, 20 DAT)?
**A.** 5%
